Patent publication US12516052B2, “Methyltransferase 5 (PRMT5) inhibitors and methods of treatment” (THE TRUSTEES OF INDIANA UNIVERSITY, priority 2016, dated 2026)
pIC50: −log10 of the molar value. Entries after “also recorded” stand apart in the source; their conditions may differ.

How the values were obtained:
[1] = test system: CRC cells (HT29, HCT116 and DLD1); test: MTT cell viability assay in CRC cell lines; assay type: cell-based
Description: (§1) The PRMT5 inhibitory activity of the compounds from the screen was confirmed using both AlphaLISA and an MTT [(3-(4,5-dimethylthiazolyl-2)-2,5-diphenyltetrazolium bromide)] assay (PerkinElmer, Waltham, MA). For the MTT assay, cells were seeded at 90% confluence in 96-well plates and titrated with different dosages of compound (IIa) for 4 days. Media was then removed and 100 μl of MTT (Sigma-Aldrich, St. Louis, MO) was added per well. Cells were incubated for 2 hours at 37° C. before adding 100 μl of DMSO to each well and quantified with the SYNERGY™ H1 Multi-Mode Reader (BioTek Instruments Inc., Winooski, VT). The expression of PRMT5 was examined in pancreatic ductal adenocarcinoma cells at multiple stages of disease progression and in multiple colorectal cancer cell lines. Pancreatic control (HPNE) and cancer cell lines (PANC1, MiaPaCa2 and AsPC1) were grown in Dulbecco's Modified Eagle Medium (DMEM) (GE Healthcare, Little Chalfont, UK), supplemented with 1% of penicillin/streptomycin, 10% fetal bovine serum (FBS). Colon control (FHC) and cancer (HT29, HCT116, and DLD1) cell lines were maintained in RPMI 1640 Medium (Roswell Park Memorial Institute Medium) (GE Healthcare, Little Chalfont, UK), containing 1% penicillin/streptomycin and 10% FBS, while FHC cells were cultured under the same condition with further addition of 25 mM HEPES (4-(2-hydroxyethyl)-1-piperazineethanesulfonic acid), 10 ng/ml cholera toxin, 0.005 mg/ml insulin, 0.005 mg/ml transferring, and 100 ng/ml hydrocortisone. All cell lines were cultured at 37° C. under 5% CO2. The PDAC and CRC cell lines described above were treated with increasing concentrations of compound (IIa) or the commercially available PRMT5 inhibitor EPZ015666 [drawing 12] and quantified for cell viability using the MTT assay described above. […] A soft agar experiment was also performed to determine the effect of compound (IIa) on colony growth.

PANC1 cells = test: PANC1 subcutaneous xenograft tumor efficacy study in NSG mice; assay type: in vivo; conditions: 20 mg/kg intraperitoneally 3×/week, vs vehicle control, n=4
Description: NSG (NOD scid gamma) mice were obtained from the In Vivo Therapeutics Core at Indiana University School of Medicine. After acclimation for 7 days, NSG mice (6-8 weeks old) were xenografted with mycoplasma-free PANC1 or HT29 cells subcutaneously (1×10^7 PANC1 or 3×10^6 HT29 cells used per mouse in 0.2 ml of a 1:1 mix of phosphate-buffered saline and MATRIGEL™) (BD Biosciences, San Jose, CA). Mice were randomized when tumor volumes reached about 100 mm^3. Mice were treated with either vehicle control or 20 mg/kg of compound (Ia) (drug stock dissolved in 1:1 CREMOPHOR™:ethanol solution) intraperitoneally 3 times per week. Tumor volumes and body weights were measured twice a week. The study was performed in accordance with the guidelines and standards of the Institutional Animal Care and Use Committee (IACUC). […] NSG (NOD scid gamma) mice were obtained from the In Vivo Therapeutics Core at Indiana University School of Medicine. After acclimation for 7 days, NSG mice (6-8 weeks old) were xenografted with mycoplasma-free PANC1 or HT29 cells subcutaneously (1×10^7 PANC1 or 3×10^6 HT29 cells used per mouse in 0.2 ml of a 1:1 mix of phosphate-buffered saline and MATRIGEL™) (BD Biosciences, San Jose, CA). Mice were randomized when tumor volumes reached about 100 mm^3. […] Tumor volumes and body weights were measured twice a week. […]

[2] = test system: methamphetamine-treated rats; test: Striatal neurotransmitter levels (HPLC) in methamphetamine-treated rats; assay type: in vivo; conditions: methamphetamine 7.5 mg/kg ×4, then 4 injections of 1 mg/kg at 12 hour intervals, vs vehicle
Description: Rats were given methamphetamine treatment 7.5 mg/kg, 4 injections spaced out at 2 hours each. Then, 4 injections of 1 mg/kg of compound (IIa) or vehicle control were given at 12 hours, 24 hours, 36 hours, and 48 hours after the last methamphetamine injection. Rats were sacrificed 24 hours after the last injection and neurotransmitter levels were quantified in the striatum using high performance liquid chromatography (HPLC).

[3] = test system: NF-κB target genes (TNFα and IL8); test: qPCR of NF-κB target genes in HT29 cells; assay type: cell-based; conditions: treated vs untreated
Description: (§2) Furthermore, experiments were performed to determine if PRMT5 inhibition by compound (IIa) could decrease the expression of NF-κB target genes (e.g., pro-inflammatory cytokines TNFα and IL-8). Briefly, HT29 and PANC1 cells were treated with or without compound (IIa), and target gene expression was analyzed by quantitative PCR.

[4] = test system: PDAC cells (PANC1, MiaPaCa2 and AsPC1); test: MTT cell viability assay in PDAC cell lines; assay type: cell-based
Description: as §1

[5] = Body weight of xenografted NSG mice during treatment; assay type: in vivo; conditions: 20 mg/kg intraperitoneally 3×/week, over the course of treatment
Description: NSG (NOD scid gamma) mice were obtained from the In Vivo Therapeutics Core at Indiana University School of Medicine. After acclimation for 7 days, NSG mice (6-8 weeks old) were xenografted with mycoplasma-free PANC1 or HT29 cells subcutaneously (1×10^7 PANC1 or 3×10^6 HT29 cells used per mouse in 0.2 ml of a 1:1 mix of phosphate-buffered saline and MATRIGEL™) (BD Biosciences, San Jose, CA). Mice were randomized when tumor volumes reached about 100 mm^3. Mice were treated with either vehicle control or 20 mg/kg of compound (Ia) (drug stock dissolved in 1:1 CREMOPHOR™:ethanol solution) intraperitoneally 3 times per week. Tumor volumes and body weights were measured twice a week. The study was performed in accordance with the guidelines and standards of the Institutional Animal Care and Use Committee (IACUC). […] NSG (NOD scid gamma) mice were obtained from the In Vivo Therapeutics Core at Indiana University School of Medicine. After acclimation for 7 days, NSG mice (6-8 weeks old) were xenografted with mycoplasma-free PANC1 or HT29 cells subcutaneously (1×10^7 PANC1 or 3×10^6 HT29 cells used per mouse in 0.2 ml of a 1:1 mix of phosphate-buffered saline and MATRIGEL™) (BD Biosciences, San Jose, CA). Mice were randomized when tumor volumes reached about 100 mm^3. Mice were treated with either vehicle control or 20 mg/kg of compound (IIa) (drug stock dissolved in 1:1 CREMOPHOR™:ethanol solution) intraperitoneally 3 times per week. Tumor volumes and body weights were measured twice a week. The study was performed in accordance with the guidelines and standards of the Institutional Animal Care and Use Committee (IACUC).

[6] = test system: other protein arginine methyltransferase family members; test: HotSpot radioisotope-based methyltransferase platform (Reaction Biology Corp); assay type: biochemical; conditions: did not inhibit or at least this fold higher IC50
[7] = test system: NF-κB target genes (TNFα and IL8); test: qPCR of NF-κB target genes in PANC1 cells; assay type: cell-based; conditions: treated vs untreated
Description: as §2

NF-κB = NF-κB luciferase assay in PANC1 cells; assay type: cell-based; conditions: increasing concentrations
Source text: Previously, it was discovered that PRMT5 activates NF-κB through methylation of its p65 subunit in HEK293 cells (Wei et al., Proc Natl Acad Sci USA, 2013; 110: 13516-13521; Wei et al., Cell Cycle, 2013; 13: 32-41). As shown in FIGS. 11A and 11B, overexpression of PRMT5 enhances NF-κB activity, while PRMT5 knockdown causes the opposite effect in both PANC1 (FIG. 11A) and HT-29 (FIG. 11B) cells. To determine if compound (IIa) decreases NF-κB activity, cells transfected with a NF-κB luciferase construct were treated with increasing concentrations of compound (IIa) or the control compound EPZ015666.

Cc1ccc(Nc2nc(NCCN(C)C)nc3c2cnn3-c2ccccc2)cc1C [compound (IIa)]
cell viability in CRC cells (HT29, HCT116, DLD1), MTT ([1]; increasing concentrations): decreased significantly
pIC50 ([1]; range over HT29, HCT116 and DLD1): 4.96 to 5.00
tumor growth (tumor volume), PANC1 xenograft (PANC1 cells): significant tumor inhibition effect; also recorded: inhibition of tumor growth
dopamine levels in the striatum [2]: increase
serotonin levels in the striatum [2]: increase
IL8 expression (qPCR), HT29 [3]: significant decrease; also recorded: dramatically decreased
TNFα expression (qPCR), HT29 [3]: significant decrease; also recorded: dramatically decreased
cell viability in PDAC cells (PANC1, MiaPaCa2, AsPC1), MTT ([4]; increasing concentrations): decreased significantly
pIC50 ([4]; range over PANC1, MiaPaCa2 and AsPC1): 5.40 to 5.70
body weight, HT29 model [5]: did not visibly affect the body weight; also recorded: no significant changes in body weight
body weight, PANC1 model [5]: did not visibly affect the body weight; also recorded: no significant changes in body weight
fold higher IC50 against other protein arginine methyltransferase family members [6]: ≥ 10 fold
IL8 expression (qPCR), PANC1 [7]: significant decrease; also recorded: dramatically decreased
TNFα expression (qPCR), PANC1 [7]: significant decrease; also recorded: dramatically decreased
NF-κB activation (luciferase), PANC1 (NF-κB): corresponding decrease in NF-κB activation
